Laboratory results: PubChem BioAssay (NCI)
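Protocol summary: plate cells (96-well), add compound at 5 concentrations, incubate 48 h, interpolate endpoints linearly. At the TGI there is no net growth.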

Key:
Assay in all cases: growth of human tumour cells (NCI), 48 h
HT29 colon = test system: HT29 colon
NCI-H522 lung = test system: NCI-H522 lung
T-47D breast = test system: T-47D breast
NCI-H460 lung = test system: NCI-H460 lung
HCT-15 colon = test system: HCT-15 colon
SN12C renal = test system: SN12C renal
SK-MEL-28 melanoma = test system: SK-MEL-28 melanoma
HL-60(TB) leukemia = test system: HL-60(TB) leukemia
M14 melanoma = test system: M14 melanoma
ACHN renal = test system: ACHN renal
SW-620 colon = test system: SW-620 colon
A549 NSCLC = test system: A549 NSCLC
NCI-H23 lung = test system: NCI-H23 lung
SK-OV-3 ovarian = test system: SK-OV-3 ovarian
786-0 renal = test system: 786-0 renal
OVCAR-8 ovarian = test system: OVCAR-8 ovarian
SK-MEL-2 melanoma = test system: SK-MEL-2 melanoma

Row | Structure (SMILES) | TGI (HT29 colon) | TGI (NCI-H522 lung) | TGI (T-47D breast) | TGI (NCI-H460 lung) | TGI (HCT-15 colon) | TGI (SN12C renal) | TGI (SK-MEL-28 melanoma) | TGI (HL-60(TB) leukemia) | TGI (M14 melanoma) | TGI (ACHN renal) | TGI (SW-620 colon) | TGI (A549 NSCLC) | TGI (NCI-H23 lung) | TGI (SK-OV-3 ovarian) | TGI (786-0 renal) | TGI (OVCAR-8 ovarian) | TGI (SK-MEL-2 melanoma)
1 | CC(=N\N=C\c1ccccn1)/C(C)=N/N=C/c1ccccn1 | > 100 µM | > 100 µM | > 100 µM | > 100 µM | > 100 µM | > 100 µM | > 100 µM | > 100 µM | > 100 µM | > 100 µM | > 100 µM | > 100 µM | > 100 µM | > 100 µM | > 100 µM | > 100 µM | > 100 µM
2 | OC1NC2CC3NC(O)C(O)NC3CC2NC1O (configuration not stated) | > 100 µM | > 100 µM | > 100 µM | > 100 µM | > 100 µM | > 100 µM | > 100 µM | > 100 µM | > 100 µM | > 100 µM | > 100 µM | > 100 µM | > 100 µM | > 100 µM | > 100 µM | > 100 µM | > 100 µM
3 | O=S(=O)(Nc1nc(-c2cc(O)c(O)c(O)c2)cs1)c1ccc(Cl)cc1Cl | 51.2 µM | 34.5 µM | 41.1 µM | 38.6 µM | 33 µM | 33.4 µM | > 100 µM | > 100 µM | 50.6 µM | 28.1 µM | 37.5 µM | > 100 µM | 74.1 µM | > 100 µM | 46.2 µM | 14.9 µM | > 100 µM
4 | CCOC(=O)c1[nH]n(-c2ccccc2)c(=O)c1C=NC(=S)C(N)=S | > 100 µM | 35.5 µM | 41.8 µM | > 100 µM | > 100 µM | > 100 µM | > 100 µM | > 100 µM | 73.3 µM | 64.8 µM | > 100 µM | > 100 µM | > 100 µM | > 100 µM | 38.2 µM | > 100 µM | > 100 µM
5 | CCC(c1nc2ccccc2c(=O)n1NC(=O)C(C)(C)C)C1(O)CCCCC1 (configuration not stated) | > 100 µM | > 100 µM | > 100 µM | > 100 µM | > 100 µM | > 100 µM | > 100 µM | > 100 µM | > 100 µM | > 100 µM | > 100 µM | > 100 µM | > 100 µM | > 100 µM | > 100 µM | > 100 µM | > 100 µM
6 | COc1ccc(-c2cc(-c3ccc(Nc4ccnc5cc(C(F)(F)F)ccc45)cc3)[nH]c(=O)c2C#N)cc1 | > 80.4 µM | > 100 µM | > 100 µM | > 100 µM | > 100 µM | > 100 µM | > 100 µM | > 100 µM | > 100 µM | > 100 µM | > 100 µM | > 100 µM | > 60.8 µM | > 47.4 µM | > 100 µM | > 100 µM | > 100 µM
